Read-outs that look alike come from different tables or passages of the source. Marks after values point to notes of the source that are not given here. Blank lines part the entries; values can stand above or below the compound they belong to.
Key:
[1] = Plasma pharmacokinetics of capecitabine and its metabolites after oral capecitabine in CES2-modified mice; type: in vivo, mouse; settings: oral capecitabine 500 mg/kg, plasma; for AUC(0-t): read-out: AUC0-2h
Experimental: (§1) For capecitabine 2-h experiments, 6–7 female mice received oral capecitabine (500 mg/kg, 10 μL/g), and tail vein blood samples were collected at 0.125, 0.25, 0.5 and 1 h after drug administration. For the vinorelbine 4-h experiment, 6-7 male mice received vinorelbine intravenously (10 mg/kg, 5 μL/g) or orally (10 mg/kg, 10 μL/g) using a blunt-ended needle. Tail vein blood samples were collected at 0.125, 0.25, 0.5, 1 and 2 h after drug administration. […] At the last time point in each experiment (2 or 4 h), mice were anesthetized with 5% isoflurane and blood was collected by cardiac puncture. […] Plasma was isolated from the blood by centrifugation at 9000 × g for 6 min at 4 °C, and the plasma fraction was collected and stored at −30 °C until analysis.
(§2) Concentrations of capecitabine (and its metabolites) and vinorelbine (and its metabolite) in mouse plasma samples and organ homogenates were determined using two independent validated high-performance liquid chromatography-tandem mass spectrometry assays.
(§3) Pharmacokinetic parameters were calculated by non-compartmental methods using the PK solver software. […] Differences were considered statistically significant when P < 0.05. All data are presented as mean ± SD.

[2] = Tissue concentrations of capecitabine and its metabolites 2 h after oral capecitabine in CES2-modified mice; type: in vivo, mouse; settings: oral capecitabine 500 mg/kg; for concentration at 2 h: female, mouse, oral, 500 mg/kg
Experimental: as §1, §2, §3

AUC0-2h ratio (metabolite/capecitabine) ([1]; female Ces2^–/– mice): 6.4 ± 1.9
AUC0-2h ratio (metabolite/capecitabine) ([1]; female Ces2^–/–A mice): 6.4 ± 2.4
AUC0-2h ratio (metabolite/capecitabine) ([1]; female Ces2^–/–V mice): 8.0 ± 2.2
AUC0-2h ratio (metabolite/capecitabine) ([1]; female wild-type mice): 21.3 ± 3.5
AUC(0-t) ([1]; female, Ces2^–/– (Ces2 cluster knockout), mouse, po, 500 mg/kg, female Ces2^–/– mice): 175 ± 37.3 µg·h/mL
Cmax ([1]; female, Ces2^–/– (Ces2 cluster knockout), mouse, po, 500 mg/kg, female Ces2^–/– mice, read-out: Cmax): 121 ± 23.9 µg/mL
Tmax ([1]; female, Ces2^–/– (Ces2 cluster knockout), mouse, po, 500 mg/kg, female Ces2^–/– mice, read-out: Tmax): 27.6 ± 16.2 min
AUC(0-t) ([1]; female, mouse, po, 500 mg/kg, female Ces2^–/–A mice): 165 ± 45.2 µg·h/mL
Cmax ([1]; female, mouse, po, 500 mg/kg, female Ces2^–/–A mice, read-out: Cmax): 117 ± 35.7 µg/mL
Tmax ([1]; female, mouse, po, 500 mg/kg, female Ces2^–/–A mice, read-out: Tmax): 27.6 ± 6 min
AUC(0-t) ([1]; female, mouse, po, 500 mg/kg, female Ces2^–/–V mice): 123 ± 34.7 µg·h/mL
Cmax ([1]; female, mouse, po, 500 mg/kg, female Ces2^–/–V mice, read-out: Cmax): 80 ± 18.2 µg/mL
Tmax ([1]; female, mouse, po, 500 mg/kg, female Ces2^–/–V mice, read-out: Tmax): 36.6 ± 22.8 min
AUC(0-t) ([1]; female, mouse, po, 500 mg/kg, female wild-type mice): 123 ± 24.9 µg·h/mL
Cmax ([1]; female, mouse, po, 500 mg/kg, female wild-type mice, read-out: Cmax): 101 ± 18 µg/mL
Tmax ([1]; female, mouse, po, 500 mg/kg, female wild-type mice, read-out: Tmax): 15 ± 8.4 min
Colon concentration ratio (metabolite/capecitabine) ([2]; female Ces2^–/– mice): 2.0 ± 0.4
Liver concentration ratio (metabolite/capecitabine) ([2]; female Ces2^–/– mice): 2.0 ± 0.6
Small intestine concentration ratio (metabolite/capecitabine) ([2]; female Ces2^–/– mice): 0.36 ± 0.20
Small intestine contents concentration ratio (metabolite/capecitabine) ([2]; female Ces2^–/– mice): 0.11 ± 0.04
Colon concentration ratio (metabolite/capecitabine) ([2]; female Ces2^–/–A mice): 3.2 ± 0.2
Liver concentration ratio (metabolite/capecitabine) ([2]; female Ces2^–/–A mice): 8.8 ± 3.6
Small intestine concentration ratio (metabolite/capecitabine) ([2]; female Ces2^–/–A mice): 0.45 ± 0.21
Small intestine contents concentration ratio (metabolite/capecitabine) ([2]; female Ces2^–/–A mice): 0.10 ± 0.06
Colon concentration ratio (metabolite/capecitabine) ([2]; female Ces2^–/–V mice): 5.1 ± 2.1
Liver concentration ratio (metabolite/capecitabine) ([2]; female Ces2^–/–V mice): 4.0 ± 1.0***##^^
Small intestine concentration ratio (metabolite/capecitabine) ([2]; female Ces2^–/–V mice): 1.80 ± 0.88^###^^^
Small intestine contents concentration ratio (metabolite/capecitabine) ([2]; female Ces2^–/–V mice): 0.13 ± 0.05
Colon concentration ratio (metabolite/capecitabine) ([2]; female wild-type mice): 6.9 ± 1.3
Liver concentration ratio (metabolite/capecitabine) ([2]; female wild-type mice): 17.4 ± 7.3
Small intestine concentration ratio (metabolite/capecitabine) ([2]; female wild-type mice): 3.20 ± 1.70
Small intestine contents concentration ratio (metabolite/capecitabine) ([2]; female wild-type mice): 0.19 ± 0.08
concentration at 2 h ([2]; Ces2^-/-, liver, female Ces2^–/– mice, read-out: Cliver (liver concentration)): 33300 ± 11600 ng/g
concentration at 2 h ([2]; Ces2^-/-, small intestine, female Ces2^–/– mice, read-out: CSI (small intestine tissue concentration)): 5410 ± 1430 ng/g
concentration at 2 h ([2]; Ces2^-/-A, liver, female Ces2^–/–A mice, read-out: Cliver (liver concentration)): 36600 ± 5870 ng/g
concentration at 2 h ([2]; Ces2^-/-A, small intestine tissue, female Ces2^–/–A mice, read-out: CSI (small intestine tissue concentration)): 6220 ± 1830 ng/g
concentration at 2 h ([2]; Ces2^-/-V, liver, female Ces2^–/–V mice, read-out: Cliver (liver concentration)): 23300 ± 8530 ng/g
concentration at 2 h ([2]; Ces2^-/-V, small intestine, female Ces2^–/–V mice, read-out: CSI (small intestine tissue concentration)): 3600 ± 1570 ng/g
concentration at 2 h ([2]; colon, female Ces2^–/– mice, read-out: Ccolon (colon concentration)): 25700 ± 10700 ng/g
concentration at 2 h ([2]; colon, female Ces2^–/–A mice, read-out: Ccolon (colon concentration)): 28200 ± 5870 ng/g
concentration at 2 h ([2]; colon, female Ces2^–/–V mice, read-out: Ccolon (colon concentration)): 21200 ± 8100 ng/g
concentration at 2 h ([2]; colon, female wild-type mice, read-out: Ccolon (colon concentration)): 14900 ± 3800 ng/g
concentration at 2 h ([2]; liver, female wild-type mice, read-out: Cliver (liver concentration)): 20300 ± 5740 ng/g
concentration at 2 h ([2]; small intestine contents, female Ces2^–/– mice, read-out: CSIC (small intestine contents concentration)): 10800 ± 5610 ng/g
concentration at 2 h ([2]; small intestine contents, female Ces2^–/–A mice, read-out: CSIC (small intestine contents concentration)): 8120 ± 2840 ng/g
concentration at 2 h ([2]; small intestine contents, female Ces2^–/–V mice, read-out: CSIC (small intestine contents concentration)): 5180 ± 2410 ng/g
concentration at 2 h ([2]; small intestine contents, female wild-type mice, read-out: CSIC (small intestine contents concentration)): 4410 ± 2350 ng/g
concentration at 2 h ([2]; small intestine tissue, female wild-type mice, read-out: CSI (small intestine tissue concentration)): 4510 ± 1340 ng/g
Structure (SMILES): C[C@H]1O[C@@H](n2cc(F)c(N)nc2=O)[C@H](O)[C@@H]1O [5’-DFCR, 5’-deoxy-5-fluorocytidine]

Structure (SMILES): C[C@H]1O[C@@H](n2cc(F)c(=O)[nH]c2=O)[C@H](O)[C@@H]1O [5’-DFUR]
AUC0-2h ([1]; female Ces2^–/– mice): 30.434 ± 12.95 µg·h/mL
AUC0-2h ratio (metabolite/capecitabine) ([1]; female Ces2^–/– mice): 1.0 ± 0.9
Cmax ([1]; female Ces2^–/– mice): 22.886 ± 11.936 µg/mL
Tmax ([1]; female Ces2^–/– mice): 38.4 ± 14.4 min
AUC0-2h ([1]; female Ces2^–/–A mice): 29.452 ± 10.37 µg·h/mL
AUC0-2h ratio (metabolite/capecitabine) ([1]; female Ces2^–/–A mice): 1.1 ± 0.3
Cmax ([1]; female Ces2^–/–A mice): 21.1 ± 8.366 µg/mL
Tmax ([1]; female Ces2^–/–A mice): 34.8 ± 12 min
AUC0-2h ([1]; female Ces2^–/–V mice): 34.477 ± 13.143 µg·h/mL
AUC0-2h ratio (metabolite/capecitabine) ([1]; female Ces2^–/–V mice): 2.1 ± 0.4***^###^^^
Cmax ([1]; female Ces2^–/–V mice): 23.871 ± 8.673 µg/mL
Tmax ([1]; female Ces2^–/–V mice): 47.4 ± 16.2 min
AUC0-2h ([1]; female wild-type mice): 27.337 ± 6.291 µg·h/mL
AUC0-2h ratio (metabolite/capecitabine) ([1]; female wild-type mice): 4.7 ± 0.9
Cmax ([1]; female wild-type mice): 21.133 ± 7.207 µg/mL
Tmax ([1]; female wild-type mice): 25.2 ± 7.8 min
CSI (small intestine tissue concentration) ([2]; female Ces2^–/– mice): 5099 ± 1783 ng/g
CSIC (small intestine contents concentration) ([2]; female Ces2^–/– mice): 3905 ± 2357 ng/g
Ccolon (colon concentration) ([2]; female Ces2^–/– mice): 4754 ± 3040 ng/g
Cliver (liver concentration) ([2]; female Ces2^–/– mice): 3447 ± 1643 ng/g
Colon concentration ratio (metabolite/capecitabine) ([2]; female Ces2^–/– mice): 0.34 ± 0.06
Liver concentration ratio (metabolite/capecitabine) ([2]; female Ces2^–/– mice): 0.21 ± 0.09
Small intestine concentration ratio (metabolite/capecitabine) ([2]; female Ces2^–/– mice): 0.32 ± 0.13
Small intestine contents concentration ratio (metabolite/capecitabine) ([2]; female Ces2^–/– mice): 0.036 ± 0.016
CSI (small intestine tissue concentration) ([2]; female Ces2^–/–A mice): 4632 ± 1545 ng/g
CSIC (small intestine contents concentration) ([2]; female Ces2^–/–A mice): 2689 ± 1092 ng/g
Ccolon (colon concentration) ([2]; female Ces2^–/–A mice): 3692 ± 793 ng/g
Cliver (liver concentration) ([2]; female Ces2^–/–A mice): 2628 ± 793 ng/g
Colon concentration ratio (metabolite/capecitabine) ([2]; female Ces2^–/–A mice): 0.42 ± 0.06
Liver concentration ratio (metabolite/capecitabine) ([2]; female Ces2^–/–A mice): 0.66 ± 0.37
Small intestine concentration ratio (metabolite/capecitabine) ([2]; female Ces2^–/–A mice): 0.33 ± 0.12
Small intestine contents concentration ratio (metabolite/capecitabine) ([2]; female Ces2^–/–A mice): 0.035 ± 0.025
CSI (small intestine tissue concentration) ([2]; female Ces2^–/–V mice): 3194 ± 1571 ng/g
CSIC (small intestine contents concentration) ([2]; female Ces2^–/–V mice): 2248 ± 905 ng/g
Ccolon (colon concentration) ([2]; female Ces2^–/–V mice): 5426 ± 27021.6 ng/g
Cliver (liver concentration) ([2]; female Ces2^–/–V mice): 2635 ± 1118 ng/g
Colon concentration ratio (metabolite/capecitabine) ([2]; female Ces2^–/–V mice): 1.2 ± 0.5^###^^^
Liver concentration ratio (metabolite/capecitabine) ([2]; female Ces2^–/–V mice): 0.44 ± 0.12
Small intestine concentration ratio (metabolite/capecitabine) ([2]; female Ces2^–/–V mice): 1.50 ± 0.56^###^^^
Small intestine contents concentration ratio (metabolite/capecitabine) ([2]; female Ces2^–/–V mice): 0.060 ± 0.024
CSI (small intestine tissue concentration) ([2]; female wild-type mice): 2119 ± 460 ng/g
CSIC (small intestine contents concentration) ([2]; female wild-type mice): 1759 ± 941 ng/g
Ccolon (colon concentration) ([2]; female wild-type mice): 2694 ± 755 ng/g
Cliver (liver concentration) ([2]; female wild-type mice): 1750 ± 637 ng/g
Colon concentration ratio (metabolite/capecitabine) ([2]; female wild-type mice): 1.2 ± 0.3
Liver concentration ratio (metabolite/capecitabine) ([2]; female wild-type mice): 1.60 ± 0.96
Small intestine concentration ratio (metabolite/capecitabine) ([2]; female wild-type mice): 1.50 ± 0.62
Small intestine contents concentration ratio (metabolite/capecitabine) ([2]; female wild-type mice): 0.077 ± 0.032

— article PMC11845761, “Intestinal human carboxylesterase 2 (CES2) expression rescues drug metabolism and most metabolic syndrome phenotypes in global Ces2 cluster knockout mice” (Acta Pharmacologica Sinica, 2024)
